Organism: Rattus norvegicus
Experiment: Open TG-GATES - Regimen: Daily Repeat
Format: toxicity, organism-based, Sprague-Dawley
Parameters: regimen Daily Repeat, gender Male, age 6 weeks
Conditions: in vivo, iv, route intravenous injection; for gamma-GTP / A/G / ALP / ALT / AST / BUN / CRE / Ca / Cl / DBIL / GLC / IP / K / LDH / Na / PL / RALB / TBIL / TC / TG / TP: tissue Plasma; for APTT / Bas / Eos / Fbg / Hb / Ht / Lym / MCH / MCHC / MCV / Mono / Neu / PT / Plat / RBC / Ret / WBC: tissue Blood; for KIDNEY_L / KIDNEY_R / KIDNEY_TOTAL: tissue Kidney; for LIVER: tissue Liver
[1] = 4 mg/kg, […], dose level Low, time 14 day
[2] = 4 mg/kg, […], dose level Low, time 28 day
[3] = 12 mg/kg, 72 h, dose level Middle, time 3 day
[4] = 12 mg/kg, […], dose level Middle, time 7 day
[5] = 12 mg/kg, […], dose level Middle, time 14 day
[6] = 12 mg/kg, […], dose level Middle, time 28 day
[7] = 40 mg/kg, 72 h, dose level High, time 3 day
[8] = 40 mg/kg, […], dose level High, time 7 day

## CN(C)c1ncnc2c1ncn2[C@@H]1O[C@H](CO)[C@@H](N)[C@H]1O [PUROMYCIN AMINONUCLEOSIDE]
4 mg/kg, […], dose level Low, time 7 day
  gamma-GTP: 1.6 IU/L
[1]
  A/G: 1.1
  ALP: 1081.2 IU/L
  ALT: 35.8 IU/L
  AST: 64.2 IU/L
  BUN: 19.2 mg/dL
  CRE: 0.2 mg/dL
  Ca: 10.9 mg/dL
  Cl: 106.8 meq/L
  DBIL: 0 mg/dL
  GLC: 179.4 mg/dL
  IP: 6.8 mg/dL
  K: 4.2 meq/L
  LDH: 141.2 IU/L
  Na: 142.8 meq/L
  PL: 143.4 mg/dL
  RALB: 2.9 g/dL
  TBIL: 0.002 mg/dL
  TC: 76.8 mg/dL
  TG: 129.2 mg/dL
  TP: 5.5 g/dL
  gamma-GTP: 1.4 IU/L
[2]
  A/G: 0.7
  ALP: 666.2 IU/L
  ALT: 34.6 IU/L
  AST: 47 IU/L
  BUN: 17.2 mg/dL
  CRE: 0.2 mg/dL
  Ca: 10.4 mg/dL
  Cl: 104.2 meq/L
  DBIL: 0 mg/dL
  GLC: 181.8 mg/dL
  IP: 6.8 mg/dL
  K: 4.3 meq/L
  LDH: 134 IU/L
  Na: 142.4 meq/L
  PL: 334 mg/dL
  RALB: 2.2 g/dL
  TBIL: 0.006 mg/dL
  TC: 203.8 mg/dL
  TG: 254.2 mg/dL
  TP: 5.4 g/dL
  gamma-GTP: 1.2 IU/L
[3]
  TERMINAL_BW: 221.5 g
  APTT: 20.8 s
  Bas: 0%
  Eos: 1%
  Fbg: 305.2 mg/dL
  Hb: 13.2 g/dL
  Ht: 38.5%
  Lym: 86.2%
  MCH: 21 pg
  MCHC: 34.2%
  MCV: 61.4 fL
  Mono: 2%
  Neu: 9.8%
  PT: 16 s
  Plat: 119.7 x10_4/uL
  RBC: 626.8 x10_4/ul
  Ret: 4.3%
  WBC: 80.4 x10_2/uL
  KIDNEY_L: 0.9 g
  KIDNEY_R: 1 g
  KIDNEY_TOTAL: 1.9 g
  LIVER: 9.9 g
  A/G: 1.3
  ALP: 1198.8 IU/L
  ALT: 39.4 IU/L
  AST: 69.4 IU/L
  BUN: 20.8 mg/dL
  CRE: 0.2 mg/dL
  Ca: 11.2 mg/dL
  Cl: 104.6 meq/L
  DBIL: 0 mg/dL
  GLC: 174.4 mg/dL
  IP: 8.2 mg/dL
  K: 4.4 meq/L
  LDH: 145.6 IU/L
  Na: 141.2 meq/L
  PL: 133 mg/dL
  RALB: 3 g/dL
  TBIL: 0.016 mg/dL
  TC: 66.6 mg/dL
  TG: 67.4 mg/dL
  TP: 5.4 g/dL
  gamma-GTP: 1.8 IU/L
[4]
  TERMINAL_BW: 243.7 g
  APTT: 21 s
  Bas: 0%
  Eos: 1%
  Fbg: 304.2 mg/dL
  Hb: 13.5 g/dL
  Ht: 38.5%
  Lym: 74.4%
  MCH: 20.6 pg
  MCHC: 35%
  MCV: 58.9 fL
  Mono: 2.6%
  Neu: 21.6%
  PT: 15.8 s
  Plat: 107.5 x10_4/uL
  RBC: 653.8 x10_4/ul
  Ret: 3.3%
  WBC: 93.9 x10_2/uL
  KIDNEY_L: 1 g
  KIDNEY_R: 1 g
  KIDNEY_TOTAL: 2 g
  LIVER: 10.4 g
  A/G: 1.1
  ALP: 1114.8 IU/L
  ALT: 36.8 IU/L
  AST: 66.4 IU/L
  BUN: 21.8 mg/dL
  CRE: 0.2 mg/dL
  Ca: 10.8 mg/dL
  Cl: 107.2 meq/L
  DBIL: 0.002 mg/dL
  GLC: 174.8 mg/dL
  IP: 7.5 mg/dL
  K: 4.2 meq/L
  LDH: 139.2 IU/L
  Na: 140.4 meq/L
  PL: 139.2 mg/dL
  RALB: 2.8 g/dL
  TBIL: 0.014 mg/dL
  TC: 76.2 mg/dL
  TG: 86.8 mg/dL
  TP: 5.3 g/dL
  gamma-GTP: 1.4 IU/L
[5]
  TERMINAL_BW: 292.3 g
  APTT: 18.6 s
  Bas: 0%
  Eos: 0.8%
  Fbg: 561 mg/dL
  Hb: 13.1 g/dL
  Ht: 35.4%
  Lym: 78.2%
  MCH: 20.3 pg
  MCHC: 36.9%
  MCV: 55.1 fL
  Mono: 2.8%
  Neu: 17%
  PT: 13.1 s
  Plat: 181.7 x10_4/uL
  RBC: 641.8 x10_4/ul
  Ret: 1.3%
  WBC: 140.4 x10_2/uL
  KIDNEY_L: 1.6 g
  KIDNEY_R: 1.6 g
  KIDNEY_TOTAL: 3.2 g
  LIVER: 12.1 g
  A/G: 0.5
  ALP: 267.4 IU/L
  ALT: 31.4 IU/L
  AST: 35.8 IU/L
  BUN: 77.4 mg/dL
  CRE: 0.5 mg/dL
  Ca: 9.3 mg/dL
  Cl: 107.6 meq/L
  DBIL: 0 mg/dL
  GLC: 180.8 mg/dL
  IP: 7.8 mg/dL
  K: 4 meq/L
  LDH: 214.2 IU/L
  Na: 143.4 meq/L
  PL: 533 mg/dL
  RALB: 1.3 g/dL
  TBIL: 0 mg/dL
  TC: 344.6 mg/dL
  TG: 454 mg/dL
  TP: 4.1 g/dL
  gamma-GTP: 1.8 IU/L
[6]
  TERMINAL_BW: 237.1 g
  APTT: 15.1 s
  Bas: 0%
  Eos: 0.5%
  Fbg: 627 mg/dL
  Hb: 9.5 g/dL
  Ht: 23.8%
  Lym: 60.8%
  MCH: 18.8 pg
  MCHC: 40%
  MCV: 46.9 fL
  Mono: 5.2%
  Neu: 32%
  PT: 15.2 s
  Plat: 137.6 x10_4/uL
  RBC: 498.2 x10_4/ul
  Ret: 0.5%
  WBC: 106.1 x10_2/uL
  KIDNEY_L: 2.3 g
  KIDNEY_R: 2.3 g
  KIDNEY_TOTAL: 4.6 g
  LIVER: 12.8 g
  A/G: 0.4
  ALP: 137.2 IU/L
  ALT: 61 IU/L
  AST: 53.2 IU/L
  BUN: 86.5 mg/dL
  CRE: 1.1 mg/dL
  Ca: 8.4 mg/dL
  Cl: 104 meq/L
  DBIL: 0 mg/dL
  GLC: 158.8 mg/dL
  IP: 8.8 mg/dL
  K: 3.9 meq/L
  LDH: 391.8 IU/L
  Na: 142.2 meq/L
  PL: 854.5 mg/dL
  RALB: 1.3 g/dL
  TBIL: 0.0025 mg/dL
  TC: 589 mg/dL
  TG: 351 mg/dL
  TP: 4.5 g/dL
  gamma-GTP: 2.8 IU/L
[7]
  TERMINAL_BW: 218.3 g
  APTT: 19.2 s
  Bas: 0%
  Eos: 0.6%
  Fbg: 356 mg/dL
  Hb: 13.3 g/dL
  Ht: 38.2%
  Lym: 88.4%
  MCH: 20.4 pg
  MCHC: 34.7%
  MCV: 58.9 fL
  Mono: 2.4%
  Neu: 7.4%
  PT: 15.9 s
  Plat: 136.4 x10_4/uL
  RBC: 649 x10_4/ul
  Ret: 2%
  WBC: 82.2 x10_2/uL
  KIDNEY_L: 0.9 g
  KIDNEY_R: 1 g
  KIDNEY_TOTAL: 1.9 g
  LIVER: 9.6 g
  A/G: 1.2
  ALP: 892.8 IU/L
  ALT: 40.6 IU/L
  AST: 62 IU/L
  BUN: 24.2 mg/dL
  CRE: 0.2 mg/dL
  Ca: 12.3 mg/dL
  Cl: 102.8 meq/L
  DBIL: 0 mg/dL
  GLC: 179.6 mg/dL
  IP: 10.8 mg/dL
  K: 4.4 meq/L
  LDH: 154.8 IU/L
  Na: 141.2 meq/L
  PL: 153 mg/dL
  RALB: 3 g/dL
  TBIL: 0.022 mg/dL
  TC: 82 mg/dL
  TG: 64.4 mg/dL
  TP: 5.5 g/dL
  gamma-GTP: 1.8 IU/L
[8]
  TERMINAL_BW: 221.5 g
  APTT: 18 s
  Bas: 0%
  Eos: 0.6%
  Fbg: 621.8 mg/dL
  Hb: 13.7 g/dL
  Ht: 37.4%
  Lym: 84.8%
  MCH: 20.5 pg
  MCHC: 36.6%
  MCV: 56.2 fL
  Mono: 2.6%
  Neu: 10.8%
  PT: 13 s
  Plat: 106.2 x10_4/uL
  RBC: 665.2 x10_4/ul
  Ret: 0.8%
  WBC: 108.1 x10_2/uL
  KIDNEY_L: 1.2 g
  KIDNEY_R: 1.2 g
  KIDNEY_TOTAL: 2.4 g
  LIVER: 8.2 g
  A/G: 0.4
  ALP: 264.4 IU/L
  ALT: 65.8 IU/L
  AST: 78.6 IU/L
  BUN: 166.8 mg/dL
  CRE: 1 mg/dL
  Ca: 9.1 mg/dL
  Cl: 101 meq/L
  DBIL: 0 mg/dL
  GLC: 164.4 mg/dL
  IP: 12.6 mg/dL
  K: 5 meq/L
  LDH: 484 IU/L
  Na: 135.4 meq/L
  PL: 387.2 mg/dL
  RALB: 1.1 g/dL
  TBIL: 0.01 mg/dL
  TC: 266.6 mg/dL
  TG: 125.6 mg/dL
  TP: 3.5 g/dL
  gamma-GTP: 2.4 IU/L

— ChEMBL document CHEMBL3885861, “Open TG-GATES”
